Results as given in patent US7259003B2, “Escherichia bacteria transformed with a yedA homolog to enhance L-amino acid producing activity, and methods for producing an L-amino acid using same” (priority 2001, dated 2007).

Tests used:
Assay type in all cases: cell-based
Conditions in all cases: 37° C.
[1] = system: E. coli strain TG1 (pYEDA1); test: Growth of E. coli TG1 (pYEDA1) on M9 glucose minimal agar containing amino acids and amino acid analogs
Experimental: (§1) The pYEDA1 and pYEDA2 plasmids and the pUC19 and pAYCTER3 vectors were introduced into E. coli strain TG1. Thus the strains TG1 (pYEDA1), TG1 (pYEDA2), TG1 (pUC19) and TG1 (pAYCTER3) were obtained.
(§2) Then the ability of these strains to grow in the presence of amino acids and amino acid analogues for each strain were determined on M9 glucose minimal agar plates containing graded concentrations of inhibitor. The plates were spotted with 10^6 to 10^7 cells from an overnight culture grown in a minimal medium (supplemented with 100 μg/ml of ampicillin for plasmid strains). The growth was estimated after 44 h incubation at 37° C.

[2] = system: E. coli strain TG1 (pUC19); test: Growth of E. coli TG1 (pUC19) on M9 glucose minimal agar containing amino acids and amino acid analogs
Experimental: as §1, §2

[3] = system: E. coli strain TG1 (pYEDA2); test: Growth of E. coli TG1 (pYEDA2) on M9 glucose minimal agar containing amino acids and amino acid analogs
Experimental: as §1, §2
Also: key: +: good growth; −: no growth.

CN(C)CC(N)C(=O)O (racemic) [4-aza-DL-leucine]
Growth after 44 h TG1 (pYEDA1) ([1]; substrate 1.0 mg/ml): + | Growth after 44 h TG1 (pUC19) ([2]; substrate 1.0 mg/ml): −

NC(Cc1c[nH]c2ccc(F)cc12)C(=O)O (racemic) [5-fluoro-DL-tryptophane]
Growth after 44 h TG1 (pYEDA1) ([1]; substrate 0.0005 mg/ml): + | Growth after 44 h TG1 (pUC19) ([2]; substrate 0.0005 mg/ml): −

NC(Cc1ccc(F)cc1)C(=O)O (racemic) [p-fluoro-DL-phenylalanine]
Growth after 44 h TG1 (pYEDA2) ([3]; substrate 1.0 mg/ml): + | Growth after 44 h TG1 (pYEDA2) ([3]; substrate 2.0 mg/ml): − | Growth after 44 h TG1 (pYEDA1) ([1]; substrate 1.0 mg/ml): + | Growth after 44 h TG1 (pYEDA1) ([1]; substrate 2.0 mg/ml): + | Growth after 44 h TG1 (pUC19) ([2]; substrate 1.0 mg/ml): − | Growth after 44 h TG1 (pUC19) ([2]; substrate 2.0 mg/ml): −

N[C@@H](CS)C(=O)O [L-cysteine]
Growth after 44 h TG1 (pYEDA1) ([1]; substrate 7.5 mg/ml): + | Growth after 44 h TG1 (pUC19) ([2]; substrate 7.5 mg/ml): −

N[C@@H](Cc1c[nH]cn1)C(=O)O [L-histidine]
Growth after 44 h TG1 (pYEDA1) ([1]; substrate 20.0 mg/ml): + | Growth after 44 h TG1 (pUC19) ([2]; substrate 20.0 mg/ml): −

N[C@@H](CCO)C(=O)O [L-homoserine]
Growth after 44 h TG1 (pYEDA1) ([1]; substrate 3.0 mg/ml): + | Growth after 44 h TG1 (pUC19) ([2]; substrate 3.0 mg/ml): −

N[C@@H](Cc1ccccc1)C(=O)O [L-phenylalanine]
Growth after 44 h TG1 (pYEDA2) ([3]; substrate 20.0 mg/ml): − | Growth after 44 h TG1 (pYEDA1) ([1]; substrate 20.0 mg/ml): + | Growth after 44 h TG1 (pUC19) ([2]; substrate 20.0 mg/ml): −

C[C@@H](O)[C@H](N)C(=O)O [L-threonine]
Growth after 44 h TG1 (pYEDA1) ([1]; substrate 50.0 mg/ml): + | Growth after 44 h TG1 (pUC19) ([2]; substrate 50.0 mg/ml): −

NCCSC[C@H](N)C(=O)O [S(2-aminoethyl)-L-cysteine]
Growth after 44 h TG1 (pYEDA2) ([3]; substrate 0.4 mg/ml): + | Growth after 44 h TG1 (pYEDA1) ([1]; substrate 0.4 mg/ml): + | Growth after 44 h TG1 (pUC19) ([2]; substrate 0.4 mg/ml): −
